“And” between values parts separate entries of the source, which are not always exact repeats. Equal entries are not always repeated.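 96-well plates; 48 h exposure; 5 concentrations. Endpoints by linear interpolation between flanking doses. Not reached: highest tested concentration assigned. At the GI50, growth is halved. The concentration for full growth arrest is given as TGI.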
What was measured:
Test in all cases: inhibition of tumour cell growth, NCI panel, 48 h
A549 NSCLC = system: A549 NSCLC
HCT-116 colon = system: HCT-116 colon
HS 578T breast = system: HS 578T breast
HT29 colon = system: HT29 colon
LOX IMVI melanoma = system: LOX IMVI melanoma
M14 melanoma = system: M14 melanoma
NCI-H522 lung = system: NCI-H522 lung
OVCAR-3 ovarian = system: OVCAR-3 ovarian
OVCAR-5 ovarian = system: OVCAR-5 ovarian
RPMI-8226 leukemia = system: RPMI-8226 leukemia
SF-268 CNS = system: SF-268 CNS
TK-10 renal = system: TK-10 renal

Compound | TGI (A549 NSCLC) | TGI (HCT-116 colon) | TGI (HS 578T breast) | TGI (HT29 colon) | TGI (LOX IMVI melanoma) | TGI (M14 melanoma) | TGI (NCI-H522 lung) | TGI (OVCAR-3 ovarian) | TGI (OVCAR-5 ovarian) | TGI (RPMI-8226 leukemia) | TGI (SF-268 CNS) | TGI (TK-10 renal) | GI50 (HCT-116 colon) | GI50 (HS 578T breast) | GI50 (HT29 colon) | GI50 (NCI-H522 lung) | GI50 (OVCAR-3 ovarian) | GI50 (OVCAR-5 ovarian) | GI50 (SF-268 CNS)
CCOP(=O)(OCC)/C(C#N)=C/c1ccc(-c2cc(C(F)(F)F)cc(C(F)(F)F)c2)o1 | 31.3 µM | 26.2 µM | > 100 µM | 21.9 µM | 15.9 µM | 23.1 µM | 24.6 µM | 21.6 µM | 26.1 µM | 23.5 µM | 33.3 µM | 35.5 µM | – | – | – | – | – | – | –
N[C@H](Cc1ccc2oc3cc(=O)c4ccccc4c-3nc2c1)C(=O)O | > 100 µM | > 100 µM | > 100 µM | > 100 µM | > 100 µM | 39.9 µM | > 100 µM | > 100 µM | > 100 µM | 83.8 µM | > 100 µM | > 100 µM | – | – | – | – | – | – | –
CC(=O)Nc1c(C(=N)C#N)ncn1CCO | > 100 µM | > 100 µM | > 100 µM | > 100 µM | > 100 µM | > 100 µM | > 100 µM | > 100 µM | > 100 µM | > 100 µM | > 100 µM | > 100 µM | – | – | – | – | – | – | –
Cc1ccc2c(c1)CC1(Cc3cccc(C)c3C1=O)C2=O (stereo not drawn) | > 100 µM | > 100 µM | > 100 µM | > 100 µM | > 10 µM | > 100 µM | > 100 µM | > 100 µM | > 100 µM | > 100 µM | > 100 µM | > 100 µM | – | – | – | – | – | – | –
CCOC(=O)C(Cc1ccc(O)cc1)Nc1nc(=O)c2c(=O)oc(Cl)cc2o1 (stereo not drawn) | 34.7 µM | 20.9 µM | 11.1 µM | 13.2 µM | 27.9 µM | 15.1 µM | 19.9 µM | 20 µM | 34.7 µM | 8.59 µM | 17.3 µM | 20.6 µM | – | – | – | – | – | – | –
N#Cc1cc2c(cc1Cl)Sc1nnc(Nc3ccccc3)n1S2(=O)=O | 16 µM | 4 µM | 6.63 µM | 6.91 µM | 3.75 µM | 4.78 µM | 4.33 µM | 3.82 µM | 3.8 µM | 9.17 µM | 10.5 µM | 13.3 µM | – | – | – | – | – | – | –
COC(=O)[C@@H](NC(=O)N(Cc1ccccc1)C[C@H](CC(C)C)NC(=O)[C@@H](NC(=O)OC(C)(C)C)C(C)C)C(C)C | > 100 µM | > 100 µM | > 100 µM | > 100 µM | > 100 µM | > 100 µM | > 100 µM | > 100 µM | > 100 µM | > 100 µM | > 100 µM | > 100 µM | – | – | – | – | – | – | –
O=c1cc(NNc2cccc(Cl)c2)[nH]c(=O)[nH]1 | > 100 µM | 31.9 µM | > 100 µM | > 100 µM | 29.6 µM | 37.7 µM | 34.4 µM | 31.2 µM | > 100 µM | 56.1 µM | > 100 µM | 36.2 µM | – | – | – | – | – | – | –
O=C1C(Br)=CC2(C=C1Br)CCNC1=C2C(=O)c2ncccc2C1=O | 3.32 µM | 1.74 µM | 5.34 µM | 4.56 µM | 1.53 µM | 3.01 µM | 1.06 µM | 4.56 µM | 3.09 µM | 2.46 µM | 4.99 µM | 4.73 µM | – | – | – | – | – | – | –
CN(C)CCCNc1ccc2ncn3c4ccc(O)cc4c(=O)c1c23 | 5.82 µM | 11.2 µM | 13.6 µM | 12.9 µM | 3.13 µM | 16.4 µM | 3.16 µM | 17.6 µM | 15.7 µM | 18.2 µM | 13.5 µM | 19.8 µM | – | – | – | – | – | – | –
O=C1c2c(Br)sc(Br)c2C(=O)C1(O)O | > 100 µM | 38.4 µM | > 100 µM | > 100 µM | > 100 µM | 33.6 µM | 37.3 µM | 35.9 µM | 50.3 µM | > 100 µM | > 100 µM | > 100 µM | – | – | – | – | – | – | –
NCCCN(CCCN)CCc1cn(C(=O)c2ccccc2)cn1 | 26.7 µM | > 51.2 µM | 86.5 µM | 29.5 µM | 43.5 µM | 18.1 µM | 64.9 µM | 7.75 µM | 33.4 µM | 10 µM | 24.2 µM | 20.6 µM | – | – | – | – | – | – | –
O=C(CBr)c1ccc2cc(Br)c3ccccc3c2c1 | 76.7 µM | > 100 µM | 59.6 µM | > 100 µM | > 100 µM | 84 µM | 37.6 µM | 46.9 µM | 57.9 µM | > 100 µM | 47 µM | 36.9 µM | – | – | – | – | – | – | –
COc1ccc2nc(-c3ccccc3)c(=O)[nH]c2c1 | > 100 µM | > 100 µM | > 100 µM | > 100 µM | > 100 µM | > 100 µM | > 100 µM | > 100 µM | > 100 µM | > 100 µM | > 100 µM | > 100 µM | – | – | – | – | – | – | –
CCOC(=O)c1c(OCC)[nH]c(=O)c(C(c2cccs2)c2c(O)c(C(=O)OCC)c(OCC)[nH]c2=O)c1O | 32.8 µM | 45 µM | > 100 µM | 35.3 µM | 30.7 µM | 35.6 µM | 27.6 µM | 30.4 µM | > 100 µM | > 100 µM | 35 µM | 63.7 µM | – | – | – | – | – | – | –
CC(=O)NC1C(Sc2ncn(C3OC(CO)C(O)C(O)C3NC(C)=O)n2)OC(CO)C(O)C1O (stereo not drawn) | > 100 µM | > 100 µM | > 100 µM | > 100 µM | > 100 µM | > 100 µM | > 100 µM | > 100 µM | > 100 µM | > 100 µM | > 100 µM | > 100 µM | – | – | – | – | – | – | –
CC(=O)c1ccc2c(c1)C(=O)c1sc(C(C)=O)cc1C2=O | 9.41 µM and 7.41 µM | 14.3 µM and 12.3 µM | 50 µM and 7.03 µM | 2.82 µM and 9.47 µM | 2.12 µM | 2.21 µM | 1.7 µM and 0.585 µM | 2.36 µM and 1.85 µM | 2.36 µM and 3.92 µM | 23.8 µM | 3.85 µM and 3.41 µM | 5.55 µM | 0.349 µM | 2.21 µM | 2.71 µM | 0.222 µM | 0.329 µM | 1.87 µM | 0.819 µM
CC(=O)SC(C[N+](=O)[O-])c1ccc2c(c1)OCO2 (stereo not drawn) | 24.1 µM | 5.22 µM | 45.3 µM | 5.56 µM | 4.35 µM | 15.6 µM | 10.4 µM | 16.6 µM | 16 µM | > 22.7 µM | > 82.5 µM | 28.2 µM | – | – | – | – | – | – | –
